Reference: PubChem BioAssay (NCI)
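Growth conditions: 96-well plates. Treatment: test compound, 48 hours, 5 concentrations. Analysis: linear interpolation between bracketing concentrations; unreached endpoints set to highest concentration. Here, GI50 denotes the concentration required for 50% inhibition of growth. At the TGI there is no net growth.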

Columns and labels:
Test in all cases: NCI anticancer screen, dose series, 48 h
[1] = system: MOLT-4 leukemia
[2] = system: RXF 393 renal
[3] = system: SNB-19 CNS
[4] = system: MDA-MB-435
[5] = system: KM12 colon
[6] = system: EKVX NSCLC
[7] = system: HOP-62 NSCLC
[8] = system: M14 melanoma
[9] = system: OVCAR-4 ovarian
[10] = system: LOX IMVI melanoma

Row | SMILES | TGI [1] [µM] | TGI [2] [µM] | TGI [3] [µM] | TGI [4] [µM] | TGI [5] [µM] | TGI [6] [µM] | TGI [7] [µM] | TGI [8] [µM] | TGI [9] [µM] | TGI [10] [µM] | GI50 [1] [µM] | GI50 [2] [µM] | GI50 [3] [µM] | GI50 [4] [µM] | GI50 [5] [µM] | GI50 [6] [µM] | GI50 [7] [µM] | GI50 [8] [µM] | GI50 [9] [µM] | GI50 [10] [µM]
1 | NC(=O)C1=NNc2ccccc2C(=O)N1c1ccccc1 | > 100 | > 100 | > 100 | > 100 | > 100 | > 100 | > 100 | > 100 | > 100 | > 100 | – | – | – | – | – | – | – | – | – | –
2 | Cc1nc2sccn2c(=O)c1CCN1CCC(=C(c2ccc(F)cc2)c2ccc(F)cc2)CC1 | 29.9 | 26.9 | 30.3 | 28.2 | 27.4 | 24.1 | 33.4 | 24.8 | 27.9 | 22.9 | 8.52 | 11.3 | 16 | 14.2 | 12.2 | 10.7 | 17.9 | 9.53 | 12.6 | 8.18
3 | N#Cc1c(-c2ccc(Cl)cc2)n(O)c2ccccc12 | 15.5 | 5.84 | 80.4 | 1.26 | 11.7 | 15.7 | 7.9 | 7.36 | > 100 | 13.4 | 3.61 | 1.8 | 2.71 | 0.29 | 2.17 | 3.11 | 2.23 | 0.803 | 3.01 | 2.24
4 | O=C1C(Br)=CC2(C=C1Br)CCN=c1c2c(O)c2nc3ccccc3c3ccnc1c23 | 2.67 | 4.36 | 12.1 | 3.09 | 8.67 | 15.1 | 15.6 | 8.73 | 2.22 | 4.35 | 0.143 | 1.11 | 4.59 | 1.18 | 2.42 | 7.23 | 7.99 | 1.73 | 0.788 | 1.24
5 | O=C(O)C1C(C(=O)Nc2ccc3c(c2)Cc2ccccc2-3)C2(Cl)C(Cl)=C(Cl)C1(Cl)C2(Cl)Cl (stereo not given) | 26.1 | 43.1 | > 100 | 76.8 | 39 | 97.6 | > 100 | 42.7 | > 100 | 32.3 | – | – | – | – | – | – | – | – | – | –
6 | CCn1c2c(n(CC)c1=S)-c1c(n(CC)c(=S)n1CC)SSSS2 | 11.1 | 7.55 | > 100 | 27.5 | 35.9 | 21.4 | > 100 | 18.1 | 20.1 | 23.2 | – | – | – | – | – | – | – | – | – | –
7 | NC(N)=NS(=O)(=O)c1ccc(NCc2c3ccccc3nc3ccccc23)cc1 | > 16.5 | 42.1 | 20.7 | > 100 | 70.1 | > 71.7 | 5.92 | 64.7 | > 100 | 58 | – | – | – | – | – | – | – | – | – | –
8 | CC(C)(C)[Si](C)(C)OCC1OC(n2cnc3c(NC(=O)c4ccccc4)ncnc32)CC1O (stereo not given) | 49.9 | 40.4 | 74.3 | 44.6 | 87.4 | > 100 | 35.5 | 38.5 | 84.6 | 33.9 | – | – | – | – | – | – | – | – | – | –
9 | C1CCN(CCC2CCCCN2)CC1 (stereo not given) | > 100 | > 100 | > 100 | > 100 | > 100 | > 100 | > 100 | > 100 | > 100 | > 100 | – | – | – | – | – | – | – | – | – | –
10 | CCCCCCCCCCCCCCCCCC1=NCCN1CS(=O)(=O)O | 38.6 | 35.6 | 40.9 | 9.82 | 8.49 | 25 | 31.4 | 21 | 33 | 12.5 | 10.2 | 15.4 | 17.9 | 2.84 | 2.78 | 11.4 | 14.1 | 6.19 | 14.9 | 2.86
11 | COc1ccccc1-n1c(-c2cc(O)ccc2C)cn2c3c(=O)[nH]c(=O)n(C)c3nc12 | > 100 | 4.11 | > 100 | > 100 | > 100 | > 100 | > 100 | > 100 | > 100 | 16 | 85.9 | 0.872 | > 100 | > 100 | > 100 | 10.1 | 7.74 | 90.8 | > 100 | 2.28
12 | CN1CCCNc2c(c(=O)c2=O)NCCCN(C)CCCNc2c(c(=O)c2=O)NCCCN(C)CCCNc2c(c(=O)c2=O)NCCCN(C)CCCNc2c(c(=O)c2=O)NCCCN(C)CCCNc2c(c(=O)c2=O)NCCCN(C)CCCNc2c(c(=O)c2=O)NCCCN(C)CCCNc2c(c(=O)c2=O)NCCC1 | 45.2 | 12.7 | 33.9 | 11.5 | 18 | 15.8 | 13.8 | 18.6 | 16.7 | > 50 | 9.7 | 2.54 | 2.59 | 2.68 | 3.63 | 5.54 | 4.41 | 6.86 | 2.98 | 10.5
13 | COc1ccc(NC(=O)n2nc(N)c3ccccc32)cc1OC | > 100 | > 100 | > 100 | > 100 | > 100 | > 100 | > 100 | > 100 | > 100 | > 100 | 39.4 | 95.2 | > 100 | > 100 | 67.9 | 54.1 | 75.2 | 65 | 63.2 | 49.3
14 | ClC1=C(Cl)C(Cl)=C(Cl)C1=C/C=C/c1ccccc1 | – | 0.36 | 2.44 | 0.977 | 0.684 | 1.23 | 4.17 | 0.882 | 19.8 | 0.407 | 0.335 | 0.186 | 0.59 | 0.302 | 0.272 | 0.215 | 1.2 | 0.279 | 0.337 | 0.184
15 | NC(CSC(c1ccccc1)(c1ccccc1)c1ccc(Cl)cc1)C(=O)O (stereo not given) | 53.3 | 4.52 | 33.2 | 0.158 | 15.1 | > 33.9 | 20.5 | 0.132 | > 100 | 36.3 | 1.66 | 0.0594 | 0.569 | 0.0344 | 0.322 | 0.342 | 0.714 | 0.0322 | 11.1 | 0.682
16 | CN(C)c1ccc(/C=C(/NC(=O)c2ccccc2)c2nc3ccc(Cl)cc3[nH]2)cc1 | 71.1 | > 93.9 | > 100 | > 100 | > 100 | > 100 | > 100 | > 100 | > 100 | > 70.6 | – | – | – | 29.8 | – | – | – | – | – | –
17 | CC(C)C1OC(=O)C=C1Sc1ccccc1 (stereo not given) | > 100 | > 100 | > 100 | > 100 | > 100 | > 100 | > 100 | > 100 | > 100 | > 100 | – | – | – | – | – | – | – | – | – | –
18 | CCOC(=O)c1sc2nc3sc(N=Nc4ccc(Cl)cc4)c(O)n3c(=S)c2c1C | > 100 | 90.4 | > 100 | > 100 | > 100 | 39.6 | > 100 | > 100 | > 100 | 87.1 | > 100 | 20.6 | 27.4 | 35.2 | 31.2 | 5.43 | 30.3 | 33.2 | 47.4 | 26.1
